Here are results for three molecules from ChEMBL document CHEMBL5649166, “RIP3 induces apoptosis independent of pronecrotic kinase activity” (Mol Cell, 2014).

The subject of experiment [1] is HT-29. Put plainly: Inhibition of TNF-alpha induced necroptosis in human HT-29 cells assessed as increase in cell viability incubated for 24 hrs in presence of zVAD and SMAC007 by Cell Titer-Glo luminescent cell viability assay. It is filed as functional, cell-based. Conditions: dose 0.01-3 µM. For orientation: ATP-based viability assays read luminescence as a measure of living cells.

The target in experiment [2] is T1, Dual specificity protein kinase TTK (Homo sapiens) (UniProt P33981).
T1 sequence (whole entry): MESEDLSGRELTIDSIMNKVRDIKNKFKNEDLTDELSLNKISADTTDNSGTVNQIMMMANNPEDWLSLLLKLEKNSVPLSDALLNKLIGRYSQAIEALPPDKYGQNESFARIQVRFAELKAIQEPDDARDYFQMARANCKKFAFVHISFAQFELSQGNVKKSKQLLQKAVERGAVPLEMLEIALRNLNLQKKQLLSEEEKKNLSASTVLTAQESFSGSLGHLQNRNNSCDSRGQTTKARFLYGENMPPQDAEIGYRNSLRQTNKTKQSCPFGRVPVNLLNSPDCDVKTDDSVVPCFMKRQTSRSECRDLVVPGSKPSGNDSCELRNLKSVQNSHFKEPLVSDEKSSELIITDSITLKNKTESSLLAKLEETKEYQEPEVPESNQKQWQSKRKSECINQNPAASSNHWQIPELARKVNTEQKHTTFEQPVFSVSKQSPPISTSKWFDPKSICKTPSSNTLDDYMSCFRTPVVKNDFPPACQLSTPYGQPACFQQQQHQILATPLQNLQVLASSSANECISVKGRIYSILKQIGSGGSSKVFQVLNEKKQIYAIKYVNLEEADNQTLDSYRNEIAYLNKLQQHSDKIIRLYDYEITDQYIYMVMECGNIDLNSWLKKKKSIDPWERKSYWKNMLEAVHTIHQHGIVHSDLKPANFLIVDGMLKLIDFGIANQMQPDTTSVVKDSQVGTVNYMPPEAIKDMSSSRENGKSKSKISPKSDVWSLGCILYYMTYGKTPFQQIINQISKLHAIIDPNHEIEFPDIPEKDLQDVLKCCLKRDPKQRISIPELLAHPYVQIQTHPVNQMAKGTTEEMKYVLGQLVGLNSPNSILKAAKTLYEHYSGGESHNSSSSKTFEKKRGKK
Briefly: Inhibition of human TTK using at 1 uM in presence of 32P-ATP by Hotspot assay relative to control; values are per cent of control.

Experiment [3] deals with T2, Serine/threonine-protein kinase A-Raf (Homo sapiens) (UniProt P10398).
T2 sequence (whole entry): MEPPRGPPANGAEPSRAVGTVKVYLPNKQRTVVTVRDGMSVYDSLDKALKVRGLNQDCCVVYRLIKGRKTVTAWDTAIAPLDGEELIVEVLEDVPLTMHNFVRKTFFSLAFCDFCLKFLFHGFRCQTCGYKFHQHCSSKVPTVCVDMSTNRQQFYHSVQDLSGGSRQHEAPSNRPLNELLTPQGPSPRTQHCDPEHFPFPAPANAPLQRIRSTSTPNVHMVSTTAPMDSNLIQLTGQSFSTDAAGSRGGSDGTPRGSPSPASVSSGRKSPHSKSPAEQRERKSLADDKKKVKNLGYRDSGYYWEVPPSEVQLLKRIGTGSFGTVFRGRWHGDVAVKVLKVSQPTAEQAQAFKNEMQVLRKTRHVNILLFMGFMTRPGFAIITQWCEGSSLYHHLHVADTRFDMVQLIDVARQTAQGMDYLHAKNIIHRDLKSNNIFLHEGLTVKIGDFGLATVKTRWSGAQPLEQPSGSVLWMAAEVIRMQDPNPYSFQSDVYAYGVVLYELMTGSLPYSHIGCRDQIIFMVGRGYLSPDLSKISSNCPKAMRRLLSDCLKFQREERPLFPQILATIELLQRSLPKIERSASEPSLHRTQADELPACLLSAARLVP
Briefly: Inhibition of human ARAF using MEK1 (K97R) as substrate at 1 uM in presence of 32P-ATP by Hotspot assay relative to control; values are per cent of control.

Experiment [4] has as its target Protein kinase C delta type (Homo sapiens) (UniProt Q05655). Put plainly: Inhibition of human PKCd using ERMRPRKRQGSVRRRV as substrate at 1 uM in presence of 32P-ATP by Hotspot assay relative to control; values are per cent of control.
The target in experiment [5] is Tyrosine-protein kinase CSK (Homo sapiens) (UniProt P41240). Put plainly: Inhibition of human CSK using poly[Glu:Tyr] (4:1) as substrate at 1 uM in presence of 32P-ATP by Hotspot assay relative to control; values are per cent of control.
For experiment [6], the species on record is Homo sapiens. Put plainly: Inhibition of human CDK2/cyclin A using RB Protein as substrate at 1 uM in presence of 32P-ATP by Hotspot assay relative to control; values are per cent of control.
Experiment [7] addresses T3, MAP kinase-activated protein kinase 5 (Homo sapiens) (UniProt Q8IW41).
T3 sequence (whole entry): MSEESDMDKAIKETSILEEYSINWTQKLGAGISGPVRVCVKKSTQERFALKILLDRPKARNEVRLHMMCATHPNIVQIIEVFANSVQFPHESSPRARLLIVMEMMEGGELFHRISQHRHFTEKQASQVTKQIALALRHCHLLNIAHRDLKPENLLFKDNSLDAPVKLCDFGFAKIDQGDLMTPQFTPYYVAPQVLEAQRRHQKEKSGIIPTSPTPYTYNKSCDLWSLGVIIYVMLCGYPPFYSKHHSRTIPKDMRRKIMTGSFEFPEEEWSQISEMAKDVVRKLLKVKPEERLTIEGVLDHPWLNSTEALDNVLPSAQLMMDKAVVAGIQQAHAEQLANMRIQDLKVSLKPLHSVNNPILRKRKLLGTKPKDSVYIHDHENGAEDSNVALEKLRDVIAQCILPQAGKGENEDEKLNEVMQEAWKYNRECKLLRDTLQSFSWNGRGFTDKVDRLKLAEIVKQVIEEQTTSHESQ
Put plainly: Inhibition of human MAPKAPK5/PRAK using KKLNRTLSVA as substrate at 1 uM in presence of 32P-ATP by Hotspot assay relative to control; values are per cent of control.

For experiment [8], the target named is Mitogen-activated protein kinase kinase kinase 20 (Homo sapiens) (UniProt Q9NYL2). Briefly: Inhibition of human ZAK/MLTK using myelin basic protein as substrate at 1 uM in presence of 32P-ATP by Hotspot assay relative to control; values are per cent of control.
Experiment [9] addresses Glycogen synthase kinase-3 beta (Homo sapiens) (UniProt P49841). Briefly: Inhibition of human GSK3b using YRRAAVPPSPSLSRHSSPHQ(pS)EDEEE as substrate at 1 uM in presence of 32P-ATP by Hotspot assay relative to control; values are per cent of control.

Glycogen synthase kinase-3 beta (Homo sapiens), sequence (P49841 whole entry, looked up): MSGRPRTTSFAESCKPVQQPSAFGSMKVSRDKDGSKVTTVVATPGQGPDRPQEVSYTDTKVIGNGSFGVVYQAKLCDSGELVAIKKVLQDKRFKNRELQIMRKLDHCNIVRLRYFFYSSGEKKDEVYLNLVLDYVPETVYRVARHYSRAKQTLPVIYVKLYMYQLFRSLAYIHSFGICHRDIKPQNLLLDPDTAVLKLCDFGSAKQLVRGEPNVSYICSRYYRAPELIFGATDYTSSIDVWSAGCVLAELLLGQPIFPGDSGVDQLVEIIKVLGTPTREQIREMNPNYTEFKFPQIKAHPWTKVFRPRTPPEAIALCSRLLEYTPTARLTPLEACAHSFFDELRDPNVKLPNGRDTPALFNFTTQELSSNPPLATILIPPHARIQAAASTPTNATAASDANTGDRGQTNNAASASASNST
Tyrosine-protein kinase CSK (Homo sapiens), sequence (P41240 2-450 limits assumed): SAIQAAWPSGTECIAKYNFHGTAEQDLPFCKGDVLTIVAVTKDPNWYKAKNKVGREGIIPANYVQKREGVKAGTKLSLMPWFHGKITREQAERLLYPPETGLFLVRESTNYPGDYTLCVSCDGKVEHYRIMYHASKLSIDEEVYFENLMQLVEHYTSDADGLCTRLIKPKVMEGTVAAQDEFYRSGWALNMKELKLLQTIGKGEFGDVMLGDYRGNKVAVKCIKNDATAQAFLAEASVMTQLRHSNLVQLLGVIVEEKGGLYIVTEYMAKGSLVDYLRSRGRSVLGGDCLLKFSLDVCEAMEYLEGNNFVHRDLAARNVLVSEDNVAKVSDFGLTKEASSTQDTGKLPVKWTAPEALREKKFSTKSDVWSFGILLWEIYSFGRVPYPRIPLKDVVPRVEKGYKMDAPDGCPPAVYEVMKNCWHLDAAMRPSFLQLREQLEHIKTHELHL
Mitogen-activated protein kinase kinase kinase 20 (Homo sapiens), sequence (Q9NYL2 2-800 limits assumed): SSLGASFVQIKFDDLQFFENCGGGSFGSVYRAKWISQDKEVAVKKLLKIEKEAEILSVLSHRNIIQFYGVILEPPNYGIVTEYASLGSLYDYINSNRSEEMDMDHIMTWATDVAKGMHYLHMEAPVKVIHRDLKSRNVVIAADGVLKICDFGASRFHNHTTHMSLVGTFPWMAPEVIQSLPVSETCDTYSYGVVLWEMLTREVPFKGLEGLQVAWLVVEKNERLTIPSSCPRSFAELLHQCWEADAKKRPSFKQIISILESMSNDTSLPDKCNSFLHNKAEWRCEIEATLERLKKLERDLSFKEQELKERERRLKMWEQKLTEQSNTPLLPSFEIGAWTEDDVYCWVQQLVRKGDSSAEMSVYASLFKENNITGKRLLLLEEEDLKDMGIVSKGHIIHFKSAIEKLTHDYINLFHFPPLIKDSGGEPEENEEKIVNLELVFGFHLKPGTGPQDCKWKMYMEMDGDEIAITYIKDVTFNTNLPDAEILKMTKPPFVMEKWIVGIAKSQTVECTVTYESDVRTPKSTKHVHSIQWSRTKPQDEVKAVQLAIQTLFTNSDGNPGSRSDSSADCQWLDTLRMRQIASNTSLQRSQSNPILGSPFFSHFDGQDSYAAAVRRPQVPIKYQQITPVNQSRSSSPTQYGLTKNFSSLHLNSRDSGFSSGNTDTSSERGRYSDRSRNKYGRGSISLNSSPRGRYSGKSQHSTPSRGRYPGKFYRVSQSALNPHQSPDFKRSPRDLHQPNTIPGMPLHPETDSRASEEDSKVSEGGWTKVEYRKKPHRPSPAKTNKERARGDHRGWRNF
Protein kinase C delta type (Homo sapiens), sequence (Q05655 whole entry, looked up): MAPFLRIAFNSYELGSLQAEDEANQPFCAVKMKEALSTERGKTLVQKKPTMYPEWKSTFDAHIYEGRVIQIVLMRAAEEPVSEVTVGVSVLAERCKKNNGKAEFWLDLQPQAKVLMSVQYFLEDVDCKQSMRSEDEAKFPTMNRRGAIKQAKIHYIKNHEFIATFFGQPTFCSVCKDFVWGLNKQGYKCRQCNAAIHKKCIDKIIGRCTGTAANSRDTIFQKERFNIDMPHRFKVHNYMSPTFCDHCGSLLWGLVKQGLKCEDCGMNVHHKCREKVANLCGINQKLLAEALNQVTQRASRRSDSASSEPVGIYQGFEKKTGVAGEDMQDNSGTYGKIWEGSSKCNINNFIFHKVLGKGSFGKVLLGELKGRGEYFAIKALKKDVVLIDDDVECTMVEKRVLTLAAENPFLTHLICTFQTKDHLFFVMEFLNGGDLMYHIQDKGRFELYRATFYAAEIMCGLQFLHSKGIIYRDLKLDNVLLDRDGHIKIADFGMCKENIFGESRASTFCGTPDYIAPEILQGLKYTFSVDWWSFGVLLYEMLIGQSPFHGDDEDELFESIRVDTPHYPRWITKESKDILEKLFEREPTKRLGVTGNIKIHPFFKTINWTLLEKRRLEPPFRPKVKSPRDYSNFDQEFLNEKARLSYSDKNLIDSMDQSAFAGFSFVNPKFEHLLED

With `CNC(=O)c1ccc2c(c1)ncn2-c1ccc(CC(=O)OC(C)(C)C)cc1`, the inhibition entry in experiment [1] was “Dose-Dependent Effect”. The residual activity stood at 91% in [2]; 93.2% in experiment [3]; 90.1% in experiment [4]; 78.6% in experiment [5]; 101% in experiment [6]; 103% in [7]. In addition, the values for the residual activity in [8] and in [9] were 41.7% and 65.2%, respectively.

As to `Cc1cc(-c2cnc(N)c3c(-c4ccc5scnc5c4)csc23)n(C)n1`, in [1], the inhibition result was “Dose-Dependent Effect”. The residual activity came to 101% in [2]; 65.3% in [3]; 60.4% in [4]; 69.5% in experiment [5]; 86% in experiment [6]; 90.5% in [7]. The figures for the residual activity in experiment [8] and in [9] were 21.2% and 93.2%, respectively.

As to `CC(C)S(=O)(=O)c1ccc2nccc(Nc3ccc4scnc4c3)c2c1`, in experiment [1], the inhibition result was “Dose-Dependent Effect”. In addition, the residual activity was 100% in [2]; 45.7% in experiment [3]; 86.3% in experiment [4]; 58.8% in [5]; 97.2% in experiment [6]; 102% in [7]. The residual activity in experiment [8] is 94.5%; in experiment [9], 83.8%.
